In patent US10385061B2, “Medicarpin, its derivatives, manufacturing method thereof” (PhytoHealth Corporation, priority 2016, dated 2019):
Like-named read-outs stand apart in the source and are kept apart here.

How the values were obtained:
[1] = test system: erythroid progenitor cells; assay: Hemoglobin colorimetric assay of bone marrow cells (erythroid progenitor differentiation); format: cell-based, mouse; conditions: low concentration (0.1 to 10 μg/mL), 96 hours, A610
Protocol: C57BL/6J male mice (6 weeks old) were used in this Example to collect bone marrow cells. The hind legs were of mice were obtained to remove excess flesh from the leg bone and cut off the ends of the bones. The bones were flushed with α-MEM medium using 23-gauge needle to elute bone marrow cells, and then filtrated by No. 53 nylon mesh filter to obtain the bone marrow cells solution.
96-well plates (U-bottom shape) were centrifuged at 1200 rpm (Kubota 6800) at 25° C. for 5 minutes. After centrifugation, the supernatant was removed and the bone marrow cells were mixed equally with 50 μL lysis buffer (0.01% NP-40) for 10 minutes. Then, 150 μL of 500 μM DAF (2,7-Diaminofluorene, Sigma-Aldrich) solution and 6 μL of 30% H2O2 were added and treated with the bone marrow cells for 5 minutes, and absorbance at 610 nm (A610) was determined. Student's t-test were used to compare data.

[2] = test system: cisplatin-induced nephropathic mice; assay: Cisplatin-induced nephropathic mice model; format: in vivo
Protocol: C57BL/6J male mice (8 to 10 weeks old) were injected i.p. (Intraperitoneal) with three doses of cisplatin (CDDP) (Sigma-Aldrich), following the scheme of 7, 6 and 7 mg/kg body weight, at 1, 5, 10 day, and the normal group (n=6) was injected with saline. On day 12, serum samples were collected and assayed for blood urea nitrogen content (BUN). Mice with BUN values greater than 100 mg/100 mL were chosen for the experiment. […] The mice were (BUN=80-300 mg/dL) subsequently divided randomly into four cohorts comprising the control and three medicarpin-treated groups, medicarpin 10, 30, 90 mg/kg/day (CDDP+Med 10, CDDP+Med 30, CDDP+Med 90) (n=6 for each group) for an additional 2 weeks. Blood samples from all the mice were collected on day 12. The red blood cell (RBC) numbers were determined from the complete blood cell count using a Sysmex Kx-21 haematology analyser (Sysmex America Inc., Mundelein, Ill., USA), and the serum BUN levels were determined through the urease GLDH method using a commercial kit (DiaSys Diagnostic System GmbH, Frankfurt, Germany). The administration and blood collection schedules were carried out according to the FIG. 4. […] However, the number of RBC in control group without medicarpin treatment was still low. […] The number of WBCs was recovered in the mice after 2 week of medicarpin treatment. […] Similarly, the number of platelet (PLT) also was decreased by cisplatin. […] (FIG. 5D).
One month after treatment of medicarpin, the expression of EPO was increased in liver (FIG. 7A) and kidney (FIG. 7B) of mice.

[3] = test system: doxorubicin-induced mice; assay: Treadmill endurance assessment under normoxic or hypoxic conditions; format: in vivo; conditions: 3 weeks administration, normoxic and hypoxic (8% O2) conditions, dose-dependent
Protocol: Before being divided into treatment groups, 8 to 10 week-old C57B1/6J male mice were trained on a treadmill for a maximum of 10 min for each of three consecutive training sessions per day for 3 days. […] On the testing day, each mouse was subjected to three trials on the treadmill at under a normoxic or hypoxic (8% O2) atmosphere. The endurance performance was measured over time until the mice suffered from electric shock over 35 times/min (electric shock system is on the end of the treadmill). The maximum trial length was 60 min and there was a 30-min rest period between each trial. (Table 2)

[4] = test system: dox-induced cardiomyopathic mice; conditions: for EF (Ejection fraction) / FS (Fractional shortening) / IVS; d / IVS; s / LVID; d / LVID; s / LVPW; d / LVPW; s: week 3, mean±SEM
Protocol: C57BL/6J male mice (6 to 8 weeks old) were injected intraperitoneally with triple dose of 5, 5, or 8 mg/kg doxorubicin-HCl (Sigma-Aldrich), respectively. In control group, the mice (n=6) were injected intraperitoneally with saline. 1 week after injection, the degree of heart failure was determined by the increase of S-T segment in electrocardiogram, and then the mice were randomly reclassified into the control group (Dox/Ctrl, n=9) and experimental group (Dox+Med) (FIG. 9). In the experimental group, the mice were fed a diet containing 10, 30, or 90 mg/kg/day medicarpin, respectively. Each experiment group consisted of 7 mice. After feedings, the mice were subjected to the rotarod endurance test, echocardiography and electrocardiogram.
The mice from all treatment groups were anaesthetized with isoflurane (0.75-1.5% inhalation); and echocardiographic measurements were taken in M-mode in triplicate for each mouse using an ATL HDI 5000 ultrasound system (Philips Medical Systems, ATL Ultrasound, Bothell, Wash., USA).

Substance: (+)-Medicarpin
- differentiation of erythroid progenitor cells [1]: enhanced
- BUN levels ([2]; 30 and 90 mg/kg treatment groups): significantly recovered
- recovery of anaemia (RBC number) ([2]; 30 and 90 mg/kg, day 33): almost complete recovery
- white blood cell (WBC) number ([2]; 30 and 90 mg/kg, week 3 to 4): significant recovery
- renal function ([2]; 30 or 90 mg/kg): accelerated the recovery
- amount of hemoglobin and number of functional RBC ([2]; high-middle dose): increased
- renal function ([2]; low-dose 10 mg/kg): could not improve
- HGF expression in liver ([2]; one month after treatment): increase
- expression of EPO in liver and kidney ([2]; one month after treatment): increased
- number of platelet (PLT) ([2]; vs CDDP/Ctrl group after its recovery from cisplatin): no significant difference
- endurance performance to exhaustion [3]: enhanced
- prolonged S-T interval ([4]; 90 mg/kg/day, one week after treatment, electrocardiogram): improved
- ejection fractions and fractional shortening ([4]; 30 and 90 mg/kg, vs doxorubicin alone): significantly greater
- EF (Ejection fraction) ([4]; Dox + Med10 (10 mg/kg/day)): 58.44 ± 2.55%
- FS (Fractional shortening) ([4]; Dox + Med10 (10 mg/kg/day)): 30.32 ± 1.56%
- IVS; d ([4]; Dox + Med10 (10 mg/kg/day)): 0.85 ± 0.03 mm
- IVS; s ([4]; Dox + Med10 (10 mg/kg/day)): 1.20 ± 0.03 mm
- LVID; d ([4]; Dox + Med10 (10 mg/kg/day)): 3.70 ± 0.34
- LVID; s ([4]; Dox + Med10 (10 mg/kg/day)): 2.58 ± 0.27
- LVPW; d ([4]; Dox + Med10 (10 mg/kg/day)): 0.69 ± 0.10
- LVPW; s ([4]; Dox + Med10 (10 mg/kg/day)): 1.00 ± 0.07
- EF (Ejection fraction) ([4]; Dox + Med30 (30 mg/kg/day)): 75.07 ± 2.29%
- FS (Fractional shortening) ([4]; Dox + Med30 (30 mg/kg/day)): 43.04 ± 2.03 %
- IVS; d ([4]; Dox + Med30 (30 mg/kg/day)): 0.81 ± 0.04 mm
- IVS; s ([4]; Dox + Med30 (30 mg/kg/day)): 1.19 ± 0.02 mm
- LVID; d ([4]; Dox + Med30 (30 mg/kg/day)): 3.33 ± 0.07
- LVID; s ([4]; Dox + Med30 (30 mg/kg/day)): 1.89 ± 0.06
- LVPW; d ([4]; Dox + Med30 (30 mg/kg/day)): 0.74 ± 0.04
- LVPW; s ([4]; Dox + Med30 (30 mg/kg/day)): 1.26 ± 0.07
- EF (Ejection fraction) ([4]; Dox + Med90 (90 mg/kg/day)): 72.92 ± 2.72%
- FS (Fractional shortening) ([4]; Dox + Med90 (90 mg/kg/day)): 41.19 ± 2.07 %
- IVS; d ([4]; Dox + Med90 (90 mg/kg/day)): 0.86 ± 0.05 mm
- IVS; s ([4]; Dox + Med90 (90 mg/kg/day)): 1.29 ± 0.09 mm
- LVID; d ([4]; Dox + Med90 (90 mg/kg/day)): 3.30 ± 0.11
- LVID; s ([4]; Dox + Med90 (90 mg/kg/day)): 1.94 ± 0.12
- LVPW; d ([4]; Dox + Med90 (90 mg/kg/day)): 0.77 ± 0.06
- LVPW; s ([4]; Dox + Med90 (90 mg/kg/day)): 1.15 ± 0.08
- expression of EPO in kidney and heart ([4]; doxorubicin-induced mice): recovered and increased
- cardiomyocytes atrophy or hypertrophy, cytoplasmic vacuolization, myofibrillar loss, myocardial fibrosis (histology) ([4]; middle-high dosed treatment): significantly ameliorated
- left ventricular posterior wall thickness (LVPWs) ([4]; middle-high doses): increased
- influence to renal function ([4]; mouse, in vivo): no influence
- heart rate (beats per second) ([4]; three weeks after treatment): recovered to normal
